Test results: ChEMBL document CHEMBL5620438, “Noducyclamides A1-A4, B1, and B2 from the Cyanobacterium Nodularia sp. NIES-3585” (J Nat Prod, 2024)
Converted amounts (≈) assume the structure as drawn. The source made the active and inactive calls. The rule behind the calls is not given here.

How the values were obtained:
MCF7 [1] = assay: Synergistic cytotoxicity against human MCF7 cells assessed as reduction in cell viability incubated for 72 hrs by MTT assay in presence of Noducyclamide B1; type: functional, cell-based
MCF7 [2] = assay: Cytotoxicity against human MCF7 cells assessed as decrease in cell viability incubated for 72 hrs by MTT assay; type: functional, cell-based; conditions: MCF7, 72 h

Structure (SMILES) | Activity (MCF7 [1]) | IC50 (MCF7 [2]) [µg/mL]
CCCCCCC[C@@H]1CC(=O)N[C@@H](CCC(N)=O)C(=O)N2C[C@H](O)C[C@H]2C(=O)N2C[C@H](O)C[C@H]2C(=O)N[C@@H](Cc2ccc(O)cc2)C(=O)N[C@H](CC(C)C)C(=O)N[C@@H](C(C)C)C(=O)N[C@H](C(C)(C)O)C(=O)N[C@@H](CC(C)C)C(=O)NCC(=O)N1 | inactive | 18 (≈ 15.2 µM)
CCCCCCC[C@@H]1CC(=O)N[C@@H](CCC(N)=O)C(=O)N2C[C@H](O)C[C@H]2C(=O)N2CCC[C@H]2C(=O)N[C@@H](Cc2ccc(O)cc2)C(=O)N[C@H](CC(C)C)C(=O)N[C@@H](C(C)C)C(=O)N[C@H](C(C)(C)O)C(=O)N[C@@H](CC(C)C)C(=O)NCC(=O)N1 | inactive | 9.6 (≈ 8.22 µM)
CCCCCCC[C@@H]1CC(=O)N[C@@H](C(C)C)C(=O)N[C@H]([C@@H](O)C(C)C)C(=O)N[C@@H](C)C(=O)N[C@H]([C@@H](O)C(C)C)C(=O)N[C@@H](CCC(N)=O)C(=O)N(C)[C@@H]([C@@H](C)CC)C(=O)N[C@H](CC(N)=O)C(=O)N[C@H]([C@H](C)O)C(=O)N2C[C@H](O)C[C@H]2C(=O)N[C@H](C(C)C)C(=O)N[C@@H]([C@@H](C)O)C(=O)N1 | – | 3 (≈ 2.17 µM)
